From article PMC10590056, “Design and synthesis of cabotegravir derivatives bearing 1,2,3-triazole and evaluation of anti-liver cancer activity” (Frontiers in Pharmacology, 2023)
Where “and” joins values, the source holds several entries; their conditions need not be identical. Equal entries are not always repeated. Where two headings read alike, the source gives them in different places.

Legend:
Type in all cases: cell-based
MCF-7 cells = assay: MTT assay for cell proliferation, MCF-7; design: key to Inhibitory rate / Inhibition rate: inhibition rate = 1 - mean A490 sample/mean A490 control (fraction)
Method: (§1) HepG2, HeLa, MCF-7, and KYSE-30 cells were grown in a humidified incubator at 37°C with 5% CO2 in DMEM supplemented with 10% fetal bovine serum (FBS), […] streptomycin, and 100 U/mL penicillin.
(§2) When HepG2 cells reached 80% confluence, they were treated with 1 mL of trypsin and resuspended at a density of 10^5 cells/mL. Then, 100 μL of cell suspension was seeded into each well of a 96-well plate and incubated in a humidified atmosphere. The different concentrations of KJ-5 and KJ-12 (0, 1, 2, 4, 8, 16, and 32 μM) were added to each well, and the cells were further incubated for 48 h. Afterward, 20 μL of the MTT solution (5 mg/mL) was added to each well, and incubation was continued for another 4 h. The supernatant was discarded, and 200 μL of the DMSO solution was added to each well. The plate was shaken for 10 min in the dark. The absorbance values were measured at 490 nm using an enzyme-linked detector. The cell inhibition rate (%) was calculated using the following formula: (1-Mean A490 sample/Mean A490 control) × 100%.

KYSE-30 cells = assay: MTT assay for cell proliferation, KYSE-30; design: key to Inhibitory rate: inhibition rate = 1 - mean A490 sample/mean A490 control (fraction)
Method: as §1, §2

normal hepatic cells L02 = assay: MTT inhibition rate in normal hepatic cells L02; settings: for Average OD / Inhibitory rate / ODtreated/ODcontrol: L02 cells, 3 repeat experiments; for Average OD: average of 5 wells; for Inhibitory rate / ODtreated/ODcontrol: fraction
p-H2AX in HepG2 cells = assay: H2AX phosphorylation by immunofluorescence and Western blotting; settings: HepG2, 24 h
Method: HepG2 cells were plated in laser confocal dishes (Nest, China), followed by the addition of KJ-5 or KJ-12 for 24 h. Then, 4% paraformaldehyde was added to each laser confocal dish for 20 min after rinsing with PBS. Before the goat serum was added to block for 1 h, 0.5% Triton X-100 was used to penetrate HepG2 for 30 min. Subsequently, the cells were incubated with p-H2AX (Cell Signaling Technology, MA, United States) at a 1:800 dilution at 4°C overnight. The cells were rinsed with PBS and incubated with Alexa Fluor 488 (Proteintech, Wuhan, China) at a 1:1000 dilution in dark at room temperature for 1 h. DAPI was used to stain the cell nucleus for 5 min. Then, the cells were rinsed with PBS before observing the cells under a laser confocal microscope (Nikon, Tokyo, Japan).
After being pretreated with either KJ-5 or KJ-12 at concentrations of 2, 4, or 8 μM for 24 h, the cells were harvested and lysed using an ice-cold cell lysis buffer from Beyotime Biotechnology (Shanghai, China). The proteins were mixed with a loading buffer and denatured by heating at 95°C–100°C for 5–10 min. Equal amounts of protein were loaded onto a 10% SDS-PAGE gel along with a molecular weight marker and separated by electrophoresis for 2 h. The separated proteins were transferred onto a PVDF membrane, which was blocked with 5% non-fat milk for non-specific binding sites on the membrane. […]

[1] = system: Bcl-2, Bax, cleaved caspase-9, cleaved caspase-3, cleaved PARP in HepG2 cells; assay: Western blot of mitochondrial apoptotic proteins
Method: After being pretreated with either KJ-5 or KJ-12 at concentrations of 2, 4, or 8 μM for 24 h, the cells were harvested and lysed using an ice-cold cell lysis buffer from Beyotime Biotechnology (Shanghai, China). The proteins were mixed with a loading buffer and denatured by heating at 95°C–100°C for 5–10 min. Equal amounts of protein were loaded onto a 10% SDS-PAGE gel along with a molecular weight marker and separated by electrophoresis for 2 h. The separated proteins were transferred onto a PVDF membrane, which was blocked with 5% non-fat milk for non-specific binding sites on the membrane. Then, the membrane was incubated with primary antibodies at 4°C overnight. Following incubation with the primary antibody, the membrane was incubated with HRP-conjugated goat anti-rabbit or goat anti-mouse IgG at 37°C for 1 h. Protein bands were visualized on the PVDF membrane using an ECL hypersensitive chemiluminescence solution and a Bio-Rad gel imaging and analysis system.

[2] = MCF-7, fraction, per experiment

## COc1c2n(cc(C(=O)Nc3cccc(-c4cn(-c5cc(C(F)(F)F)cc(C(F)(F)F)c5)nn4)c3)c1=O)C[C@H]1OC[C@H](C)N1C2=O [KJ-5]
MCF-7 cells; Homo sapiens, MCF7, 48 h, MCF-7, 48 h, MTT, read-out: IC50 MCF-7
  IC50: 8.41 ± 0.14 µM
MCF-7 cells; Homo sapiens, MCF7, MCF-7, one of three experiments, unit inferred, read-out: IC50, single experiment, MCF-7
  IC50: 8.56 µM
MCF-7 cells; Homo sapiens, MCF7, preliminary screening, MCF-7, 16 μM, 48 h, mean±SD, unit inferred, read-out: Inhibition rate (16μM), 48 h, MCF-7
  inhibition at 16 µM: 62.6 ± 1.76%
MCF-7 cells; MCF-7, group 1 (concentration), fraction, single experiments
  Inhibitory rate: 0.147 and 0.1313 and 0.1401
MCF-7 cells; MCF-7, group 1 (concentration), single experiments
  ODtreated/ODcontrol: 0.853 and 0.8687 and 0.8599
MCF-7 cells; MCF-7, group 2 (concentration), fraction, single experiments
  Inhibitory rate: 0.1769 and 0.1986 and 0.2186
MCF-7 cells; MCF-7, group 2 (concentration), single experiments
  ODtreated/ODcontrol: 0.8231 and 0.8014 and 0.7814
MCF-7 cells; MCF-7, group 4 (concentration), fraction, single experiments
  Inhibitory rate: 0.4303 and 0.4175 and 0.4002
MCF-7 cells; MCF-7, group 4 (concentration), single experiments
  ODtreated/ODcontrol: 0.5697 and 0.5825 and 0.5998
MCF-7 cells; MCF-7, group 8 (concentration), fraction, single experiments
  Inhibitory rate: 0.509 and 0.5265 and 0.5019
MCF-7 cells; MCF-7, group 8 (concentration), single experiments
  ODtreated/ODcontrol: 0.491 and 0.4735 and 0.4981
MCF-7 cells; MCF-7, group 16 (concentration), fraction, single experiments
  Inhibitory rate: 0.5958 and 0.5893 and 0.6098
MCF-7 cells; MCF-7, group 16 (concentration), single experiments
  ODtreated/ODcontrol: 0.4042 and 0.4107 and 0.3902
MCF-7 cells; MCF-7, group 32 (concentration), fraction, single experiments
  Inhibitory rate: 0.7196 and 0.7385 and 0.7334
MCF-7 cells; MCF-7, group 32 (concentration), single experiments
  ODtreated/ODcontrol: 0.2804 and 0.2615 and 0.2666
MCF-7 cells; MCF-7, one of three experiments, unit inferred, read-out: IC50, single experiment, MCF-7
  IC50: 8.29 µM and 8.37 µM
MCF-7 cells; [2]
  Inhibitory rate: 0.6368
  ODtreated/ODcontrol: 0.3632
MCF-7 cells; given as fraction, second of three experiments
  Inhibitory rate: 0.6364
MCF-7 cells; given as fraction, third of three experiments
  Inhibition rate: 0.6061
MCF-7 cells; second of three experiments
  ODtreated/ODcontrol: 0.3635
MCF-7 cells; third of three experiments
  ODtreated/ODcontrol: 0.3939
KYSE-30 cells; Homo sapiens, KYSE-30, 48 h, MTT, read-out: IC50 KYSE-30
  IC50: 8.51 ± 0.43 µM
KYSE-30 cells; Homo sapiens, KYSE-30, KYSE-30, one of three experiments, unit inferred, read-out: IC50, single experiment, KYSE-30
  IC50: 8.96 µM
KYSE-30 cells; Homo sapiens, preliminary screening, KYSE-30, 16 μM, 48 h, mean±SD, unit inferred, read-out: Inhibition rate (16μM), 48 h, KYSE-30
  inhibition at 16 µM: 65.7 ± 0.91%
KYSE-30 cells; KYSE-30, first of three experiments
  ODtreated/ODcontrol: 0.346
KYSE-30 cells; KYSE-30, given as fraction, first of three experiments
  Inhibitory rate: 0.654
KYSE-30 cells; KYSE-30, given as fraction, second of three experiments
  Inhibitory rate: 0.6669
KYSE-30 cells; KYSE-30, given as fraction, third of three experiments
  Inhibitory rate: 0.6494
KYSE-30 cells; KYSE-30, group 1 (concentration), fraction, single experiments
  Inhibitory rate: 0.1205 and 0.156 and 0.08655
KYSE-30 cells; KYSE-30, group 1 (concentration), single experiments
  ODtreated/ODcontrol: 0.8795 and 0.844 and 0.9135
KYSE-30 cells; KYSE-30, group 2 (concentration), fraction, single experiments
  Inhibitory rate: 0.2874 and 0.3093 and 0.2896
KYSE-30 cells; KYSE-30, group 2 (concentration), single experiments
  ODtreated/ODcontrol: 0.7126 and 0.6907 and 0.7104
KYSE-30 cells; KYSE-30, group 4 (concentration), fraction, single experiments
  Inhibitory rate: 0.3928 and 0.4106 and 0.3851
KYSE-30 cells; KYSE-30, group 4 (concentration), single experiments
  ODtreated/ODcontrol: 0.6072 and 0.5895 and 0.6149
KYSE-30 cells; KYSE-30, group 8 (concentration), fraction, single experiments
  Inhibitory rate: 0.503 and 0.5061 and 0.5028
KYSE-30 cells; KYSE-30, group 8 (concentration), single experiments
  ODtreated/ODcontrol: 0.497 and 0.4939 and 0.4972
KYSE-30 cells; KYSE-30, group 16 (concentration), fraction, single experiments
  Inhibitory rate: 0.6001 and 0.6158 and 0.6257
KYSE-30 cells; KYSE-30, group 16 (concentration), single experiments
  ODtreated/ODcontrol: 0.3999 and 0.3842 and 0.3743
KYSE-30 cells; KYSE-30, group 32 (concentration), fraction, single experiments
  Inhibitory rate: 0.6693 and 0.6807 and 0.6972
KYSE-30 cells; KYSE-30, group 32 (concentration), single experiments
  ODtreated/ODcontrol: 0.3307 and 0.3193 and 0.3028
KYSE-30 cells; KYSE-30, one of three experiments, unit inferred, read-out: IC50, single experiment, KYSE-30
  IC50: 8.11 µM and 8.46 µM
KYSE-30 cells; KYSE-30, second of three experiments
  ODtreated/ODcontrol: 0.3331
KYSE-30 cells; KYSE-30, third of three experiments
  ODtreated/ODcontrol: 0.3506
Normal hepatic cells L02; Homo sapiens, L02, 48 h, L02, 1 μM, 48 h
  inhibition at 1 µM: 9.85 ± 1.6%
Normal hepatic cells L02; Homo sapiens, L02, 48 h, L02, 2 μM, 48 h
  inhibition at 2 µM: 14.9 ± 1.97%
Normal hepatic cells L02; Homo sapiens, L02, 48 h, L02, 4 μM, 48 h
  inhibition at 4 µM: < 20%
Normal hepatic cells L02; Homo sapiens, L02, 48 h, L02, 8 μM, 48 h
  inhibition at 8 µM: 27.1 ± 1.03%
Normal hepatic cells L02; Homo sapiens, L02, 48 h, L02, 16 μM, 48 h
  inhibition at 16 µM: 34.9 ± 2.22%
Normal hepatic cells L02; Group 1
  Average OD: 1.014 and 1.1374 and 1.3158
  Inhibitory rate: 0.1149 and 0.09786 and 0.08274
  ODtreated/ODcontrol: 0.8851 and 0.9021 and 0.9173
Normal hepatic cells L02; Group 2
  Average OD: 0.969 and 1.07 and 1.2316
  Inhibitory rate: 0.1715 and 0.1379 and 0.1371
  ODtreated/ODcontrol: 0.8285 and 0.8621 and 0.8629
Normal hepatic cells L02; Group 4
  Average OD: 0.922 and 1.0172 and 1.2162
  Inhibitory rate: 0.1819 and 0.1797 (2×)
  ODtreated/ODcontrol: 0.8181 and 0.8203 (2×)
Normal hepatic cells L02; Group 8
  Average OD: 0.8272 and 0.9114 and 1.0668
  Inhibitory rate: 0.2824 and 0.2641 and 0.265
  ODtreated/ODcontrol: 0.7176 and 0.7359 and 0.735
Normal hepatic cells L02; Group 16
  Average OD: 0.7216 and 0.9442
  Inhibitory rate: 0.3649 and 0.358 and 0.3234
  ODtreated/ODcontrol: 0.6351 and 0.642 and 0.6766
Normal hepatic cells L02; Group 32
  Average OD: 0.428 and 0.4844 and 0.436
  Inhibitory rate: 0.7067 and 0.6192 and 0.6094
  ODtreated/ODcontrol: 0.2933 and 0.3808 and 0.3906
p-H2AX in HepG2 cells
  Expression of p-H2AX (DNA damage marker): increased the expression of p-H2AX
[1]; HepG2, 2, 4 or 8 μM, 24 h
  Bax levels: increased
  Bax/Bcl-2 ratio: increased
  Bcl-2 protein levels: decreased
[1]; HepG2, vs control
  Expression of cleaved PARP: significantly increased
  Expression of cleaved caspase-3: significantly increased
  Expression of cleaved caspase-9: significantly increased
